Data as given in US9409905B2, “Antibacterial compounds and methods for use” (PTC THERAPEUTICS, INC., priority 2011, dated 2016).
Values after ≈ are worked out from the molar mass of the structure shown.

Experiments:
[1] = system: Escherichia coli (E. coli) BAS849; assay: Antibacterial activity, microbroth dilution MIC (Table 1); type: cell-based; details: microbroth dilution, super sensitive Gram-negative E. coli BAS849, read-out: MIC, BAS849
From the text: (§1) The antibacterial activity from a microbroth dilution method may be presented as the minimum inhibitory concentration (MIC in μg/mL). The MIC value is the lowest concentration of drug which prevents macroscopically visible growth under test conditions.
(§2) Antibacterial activity of test compounds against the super sensitive Gram-negative Escherichia coli (E. coli) BAS849 bacterium, the control Gram-negative E. coli 25922 strain and the Gram-positive Staphylococcus aureus (S. aureus) 29213 bacterium are shown in Table 1.

[2] = system: Staphylococcus aureus (S. aureus) 29213; assay: as above; type: cell-based; details: microbroth dilution, Gram-positive S. aureus 29213, read-out: MIC, 29213
From the text: as §1, §2

E. coli 25922 = assay: as above; type: cell-based, Escherichia coli; details: Escherichia coli; microbroth dilution; control Gram-negative E. coli 25922 strain; read-out: MIC, 25922
From the text: as §1, §2

E. coli LZ3111 = assay: Antibacterial activity, MIC, quinolone resistant strain (Table 2); type: cell-based; details: Escherichia coli, LZ3111, read-out: MIC LZ3111
From the text: as §1
Mutations in these regions are known to confer a high level resistance to the quinolone class of antibiotics.

SMILES	MIC [1]	MIC [2]	MIC (E. coli 25922)	MIC (E. coli LZ3111)
CCc1cc(C(=O)O)c(=O)[nH]c1-c1ccc2ccn(C)c2c1 [Cpd 7, 5-ethyl-6-(1-methyl-1H-indol-6-yl)-2-oxo-1,2-dihydropyridine-3-carboxylic acid]	1 to 3.5 µg/mL (≈ 3.37 to 11.8 µM)	12.5 to 150 µg/mL (≈ 42.2 to 506 µM)	12.5 to 150 µg/mL (≈ 42.2 to 506 µM)	12.5 to 150 µg/mL (≈ 42.2 to 506 µM)
CCc1c(-c2ccc3nc(C)oc3c2)[nH]c(=O)c(C(=O)O)c1O [Cpd 12, 5-ethyl-4-hydroxy-6-(2-methylbenzo[d]oxazol-6-yl)-2-oxo-1,2-dihydropyridine-3-carboxylic acid]	1 to 3.5 µg/mL (≈ 3.18 to 11.1 µM)	12.5 to 150 µg/mL (≈ 39.8 to 477 µM)	12.5 to 150 µg/mL (≈ 39.8 to 477 µM)	12.5 to 150 µg/mL (≈ 39.8 to 477 µM)
CCc1cc(C(=O)O)c(=O)[nH]c1-c1cn(C)c2ccccc12 [Cpd 13, 5-ethyl-6-(1-methyl-1H-indol-3-yl)-2-oxo-1,2-dihydropyridine-3-carboxylic acid]	3.5 to 12.5 µg/mL (≈ 11.8 to 42.2 µM)	12.5 to 150 µg/mL (≈ 42.2 to 506 µM)	12.5 to 150 µg/mL (≈ 42.2 to 506 µM)	
CCc1cc(C(=O)O)c(=O)[nH]c1-c1ccc2nc(-c3ccccc3)oc2c1 [Cpd 15, 5-ethyl-2-oxo-6-(2-phenylbenzo[d]oxazol-6-yl)-1,2-dihydropyridine-3-carboxylic acid]	1 to 3.5 µg/mL (≈ 2.77 to 9.71 µM)	12.5 to 150 µg/mL (≈ 34.7 to 416 µM)	12.5 to 150 µg/mL (≈ 34.7 to 416 µM)	
CCc1c(-c2ccc3nc(-c4ccccc4)oc3c2)[nH]c(=O)c(C(=O)O)c1O [Cpd 16, 5-ethyl-4-hydroxy-2-oxo-6-(2-phenylbenzo[d]oxazol-6-yl)-1,2-dihydropyridine-3-carboxylic acid]	3.5 to 12.5 µg/mL (≈ 9.3 to 33.2 µM)	1 to 3.5 µg/mL (≈ 2.66 to 9.3 µM)	12.5 to 150 µg/mL (≈ 33.2 to 399 µM)	
CCc1cc(C(=O)O)c(=O)[nH]c1-c1ccc2nc(N(C)C)oc2c1 [Cpd 17, 6-(2-(dimethylamino)benzo[d]oxazol-6-yl)-5-ethyl-2-oxo-1,2-dihydropyridine-3-carboxylic acid]	3.5 to 12.5 µg/mL (≈ 10.7 to 38.2 µM)	1 to 3.5 µg/mL (≈ 3.05 to 10.7 µM)	12.5 to 150 µg/mL (≈ 38.2 to 458 µM)	
CCc1c(-c2ccc3nc(N(C)C)oc3c2)[nH]c(=O)c(C(=O)O)c1O [Cpd 18, 6-(2-(dimethylamino)benzo[d]oxazol-6-yl)-5-ethyl-4-hydroxy-2-oxo-1,2-dihydropyridine-3-carboxylic acid]	3.5 to 12.5 µg/mL (≈ 10.2 to 36.4 µM)	1 to 3.5 µg/mL (≈ 2.91 to 10.2 µM)	12.5 to 150 µg/mL (≈ 36.4 to 437 µM)	12.5 to 150 µg/mL (≈ 36.4 to 437 µM)
CCc1cc(C(=O)O)c(=O)[nH]c1-c1ccc2ncccc2c1 [Cpd 19, 5-ethyl-2-oxo-6-(quinolin-6-yl)-1,2-dihydropyridine-3-carboxylic acid]	12.5 to 150 µg/mL (≈ 42.5 to 510 µM)	12.5 to 150 µg/mL (≈ 42.5 to 510 µM)	12.5 to 150 µg/mL (≈ 42.5 to 510 µM)	
CCc1cc(C(=O)O)c(=O)[nH]c1-c1ccc2c(ccn2CCO)c1 [Cpd 23, 5-ethyl-6-(1-(2-hydroxyethyl)-1H-indol-5-yl)-2-oxo-1,2-dihydropyridine-3-carboxylic acid]	< 1 µg/mL	12.5 to 150 µg/mL (≈ 38.3 to 460 µM)	3.5 to 12.5 µg/mL (≈ 10.7 to 38.3 µM)	12.5 to 150 µg/mL (≈ 38.3 to 460 µM)
CCc1cc(C(=O)O)c(=O)[nH]c1-c1ccc2c(ccn2CC2OCCO2)c1 [Cpd 25, 6-(1-((1,3-dioxolan-2-yl)methyl)-1H-indol-5-yl)-5-ethyl-2-oxo-1,2-dihydropyridine-3-carboxylic acid]	< 1 µg/mL	12.5 to 150 µg/mL (≈ 33.9 to 407 µM)	12.5 to 150 µg/mL (≈ 33.9 to 407 µM)	
CCc1c(-c2ccc3c(ccn3CC3OCCO3)c2)[nH]c(=O)c(C(=O)O)c1O [Cpd 26, 6-(1-((1,3-dioxolan-2-yl)methyl)-1H-indol-5-yl)-5-ethyl-4-hydroxy-2-oxo-1,2-dihydropyridine-3-carboxylic acid]	< 1 µg/mL	3.5 to 12.5 µg/mL (≈ 9.11 to 32.5 µM)	12.5 to 150 µg/mL (≈ 32.5 to 390 µM)	
CCc1cc(C(=O)O)c(=O)[nH]c1-c1ccc2c(c1)c1c(n2C)CCCC1 [Cpd 27, 5-ethyl-6-(9-methyl-2,3,4,9-tetrahydro-1H-carbazol-6-yl)-2-oxo-1,2-dihydropyridine-3-carboxylic acid]	< 1 µg/mL	3.5 to 12.5 µg/mL (≈ 9.99 to 35.7 µM)	12.5 to 150 µg/mL (≈ 35.7 to 428 µM)	
CCc1c(-c2ccc3c(c2)c2c(n3C)CCCC2)[nH]c(=O)c(C(=O)O)c1O [Cpd 28, 5-ethyl-4-hydroxy-6-(9-methyl-2,3,4,9-tetrahydro-1H-carbazol-6-yl)-2-oxo-1,2-dihydropyridine-3-carboxylic acid]	12.5 to 150 µg/mL (≈ 34.1 to 409 µM)	< 1 µg/mL	12.5 to 150 µg/mL (≈ 34.1 to 409 µM)	12.5 to 150 µg/mL (≈ 34.1 to 409 µM)
CCc1cc(C(=O)O)c(=O)[nH]c1-c1ccc2c(c1)c(C)c(C)n2C [Cpd 29, 5-ethyl-2-oxo-6-(1,2,3-trimethyl-1H-indol-5-yl)-1,2-dihydropyridine-3-carboxylic acid]	< 1 µg/mL	12.5 to 150 µg/mL (≈ 38.5 to 462 µM)	12.5 to 150 µg/mL (≈ 38.5 to 462 µM)	
CCc1c(-c2ccc3c(c2)c(C)c(C)n3C)[nH]c(=O)c(C(=O)O)c1O [Cpd 30, 5-ethyl-4-hydroxy-2-oxo-6-(1,2,3-trimethyl-1H-indol-5-yl)-1,2-dihydropyridine-3-carboxylic acid]	1 to 3.5 µg/mL (≈ 2.94 to 10.3 µM)	1 to 3.5 µg/mL (≈ 2.94 to 10.3 µM)	12.5 to 150 µg/mL (≈ 36.7 to 441 µM)	12.5 to 150 µg/mL (≈ 36.7 to 441 µM)
CC(C)c1c(-c2ccc3c(ccn3C)c2)[nH]c(=O)c(C(=O)O)c1O [Cpd 34, 4-hydroxy-5-isopropyl-6-(1-methyl-1H-indol-5-yl)-2-oxo-1,2-dihydropyridine-3-carboxylic acid]	< 1 µg/mL	1 to 3.5 µg/mL (≈ 3.06 to 10.7 µM)	3.5 to 12.5 µg/mL (≈ 10.7 to 38.3 µM)	
CCc1cc(C(=O)O)c(=O)[nH]c1-c1cc2cc(C(=O)O)n(C)c2cn1 [Cpd 54, 5-(5-carboxy-3-ethyl-6-oxo-1,6-dihydropyridin-2-yl)-1-methyl-1H-pyrrolo[2,3-c]pyridine-2-carboxylic acid]	1 to 3.5 µg/mL (≈ 2.93 to 10.3 µM)	12.5 to 150 µg/mL (≈ 36.6 to 439 µM)	12.5 to 150 µg/mL (≈ 36.6 to 439 µM)	12.5 to 150 µg/mL (≈ 36.6 to 439 µM)
CCc1cc(C(=O)O)c(=O)[nH]c1-c1cnc2[nH]ccc2c1 [Cpd 55, 5-ethyl-2-oxo-6-(1H-pyrrolo[2,3-b]pyridin-5-yl)-1,2-dihydropyridine-3-carboxylic acid]	12.5 to 150 µg/mL (≈ 44.1 to 529 µM)	12.5 to 150 µg/mL (≈ 44.1 to 529 µM)	12.5 to 150 µg/mL (≈ 44.1 to 529 µM)	12.5 to 150 µg/mL (≈ 44.1 to 529 µM)
CCc1cc(C(=O)O)c(=O)[nH]c1-c1ccc2c(c1)N(C)CCN2C [Cpd 56, 6-(1,4-dimethyl-1,2,3,4-tetrahydroquinoxalin-6-yl)-5-ethyl-2-oxo-1,2-dihydropyridine-3-carboxylic acid]	3.5 to 12.5 µg/mL (≈ 10.7 to 38.2 µM)	12.5 to 150 µg/mL (≈ 38.2 to 458 µM)	12.5 to 150 µg/mL (≈ 38.2 to 458 µM)	12.5 to 150 µg/mL (≈ 38.2 to 458 µM)
CCc1cc(C(=O)O)c(=O)[nH]c1-c1ccc2nccnc2c1 [Cpd 57, 5-ethyl-2-oxo-6-(quinoxalin-6-yl)-1,2-dihydropyridine-3-carboxylic acid]	12.5 to 150 µg/mL (≈ 42.3 to 508 µM)	12.5 to 150 µg/mL (≈ 42.3 to 508 µM)	12.5 to 150 µg/mL (≈ 42.3 to 508 µM)	12.5 to 150 µg/mL (≈ 42.3 to 508 µM)
CCc1cc(C(=O)O)c(=O)[nH]c1-c1cnc2c(c1)OCCN2C [Cpd 58, 5-ethyl-6-(4-methyl-3,4-dihydro-2H-pyrido[3,2-b][1,4]oxazin-7-yl)-2-oxo-1,2-dihydropyridine-3-carboxylic acid]	3.5 to 12.5 µg/mL (≈ 11.1 to 39.6 µM)	12.5 to 150 µg/mL (≈ 39.6 to 476 µM)	12.5 to 150 µg/mL (≈ 39.6 to 476 µM)	12.5 to 150 µg/mL (≈ 39.6 to 476 µM)
CCc1cc(C(=O)O)c(=O)[nH]c1-c1cnc2c(c1)c(C#N)cn2C [Cpd 59, 6-(3-cyano-1-methyl-1H-pyrrolo[2,3-b]pyridin-5-yl)-5-ethyl-2-oxo-1,2-dihydropyridine-3-carboxylic acid]	12.5 to 150 µg/mL (≈ 38.8 to 465 µM)	12.5 to 150 µg/mL (≈ 38.8 to 465 µM)	12.5 to 150 µg/mL (≈ 38.8 to 465 µM)	12.5 to 150 µg/mL (≈ 38.8 to 465 µM)
CCc1cc(C(=O)O)c(=O)[nH]c1-c1ccc2nc(CN(C)C)cn2c1.Cl.Cl [Cpd 60, 6-(2-((dimethylamino)methyl)imidazo[1,2-a]pyridin-6-yl)-5-ethyl-2-oxo-1,2-dihydropyridine-3-carboxylic acid dihydrochloride]	12.5 to 150 µg/mL	12.5 to 150 µg/mL	12.5 to 150 µg/mL	12.5 to 150 µg/mL
CCc1cc(C(=O)O)c(=O)[nH]c1-c1ccc2nc(CN3CCCC3)cn2c1.Cl.Cl [Cpd 61, 5-ethyl-2-oxo-6-(2-(pyrrolidin-1-ylmethyl)imidazo[1,2-a]pyridin-6-yl)-1,2-dihydropyridine-3-carboxylic acid dihydrochloride]	12.5 to 150 µg/mL	12.5 to 150 µg/mL	12.5 to 150 µg/mL	12.5 to 150 µg/mL
CCc1cc(C(=O)O)c(=O)[nH]c1-c1ccc2nc(CN3CCCCC3)cn2c1.Cl.Cl [Cpd 62, 5-ethyl-2-oxo-6-(2-(piperidin-1-ylmethyl)imidazo[1,2-a]pyridin-6-yl)-1,2-dihydropyridine-3-carboxylic acid dihydrochloride]	12.5 to 150 µg/mL	12.5 to 150 µg/mL	12.5 to 150 µg/mL	12.5 to 150 µg/mL
CCc1cc(C(=O)O)c(=O)[nH]c1-c1ccc2nc(CN(CC)CC)cn2c1.Cl.Cl [Cpd 63, 6-(2-((diethylamino)methyl)imidazo[1,2-a]pyridin-6-yl)-5-ethyl-2-oxo-1,2-dihydropyridine-3-carboxylic acid dihydrochloride]	12.5 to 150 µg/mL	12.5 to 150 µg/mL	12.5 to 150 µg/mL	12.5 to 150 µg/mL
CCc1cc(C(=O)O)c(=O)[nH]c1-c1cc2cc(CN3CCCC3)n(C)c2s1.Cl [Cpd 64, 5-ethyl-6-(6-methyl-5-(pyrrolidin-1-ylmethyl)-6H-thieno[2,3-b]pyrrol-2-yl)-2-oxo-1,2-dihydropyridine-3-carboxylic acid hydrochloride]	< 1 µg/mL	12.5 to 150 µg/mL	12.5 to 150 µg/mL	12.5 to 150 µg/mL
CCc1cc(C(=O)O)c(=O)[nH]c1-c1cc2cc(CN(C)C)n(C)c2s1.Cl [Cpd 65, 6-(5-((dimethylamino)methyl)-6-methyl-6H-thieno[2,3-b]pyrrol-2-yl)-5-ethyl-2-oxo-1,2-dihydropyridine-3-carboxylic acid hydrochloride]	< 1 µg/mL	12.5 to 150 µg/mL	3.5 to 12.5 µg/mL	12.5 to 150 µg/mL
CCc1cc(C(=O)O)c(=O)[nH]c1-c1ccc2c(c1)cc1n2CCNC1 [Cpd 66, 5-ethyl-2-oxo-6-(1,2,3,4-tetrahydropyrazino[1,2-a]indol-8-yl)-1,2-dihydropyridine-3-carboxylic acid]	< 1 µg/mL	12.5 to 150 µg/mL (≈ 37.1 to 445 µM)	< 1 µg/mL	12.5 to 150 µg/mL (≈ 37.1 to 445 µM)
